Source: patent US11713338B2, “Cyclic peptides multimers targeting α-4-β-7 integrin” (priority 2016, dated 2023)
pIC50: −log10 of the molar value.

Columns and labels:
[1] = target: T1, integrin α4β7 (RPMI8866 human cells adhering to MAdCAM-1) (Homo sapiens, UniProt P13612+P26010); assay: Integrin α4β7-MAdCAM cell adhesion assay (RPMI8866 cells); assay type: cell-based; conditions: RPMI8866 cells adhering to MAdCAM; read-out: RPMI8866 Adhesion α4β7/MAdCAM IC50
T1 construct: RMP18866 cells, which express integrin α4β7; host or cells: RPMI8866
T1 sequence (P13612 34-1032): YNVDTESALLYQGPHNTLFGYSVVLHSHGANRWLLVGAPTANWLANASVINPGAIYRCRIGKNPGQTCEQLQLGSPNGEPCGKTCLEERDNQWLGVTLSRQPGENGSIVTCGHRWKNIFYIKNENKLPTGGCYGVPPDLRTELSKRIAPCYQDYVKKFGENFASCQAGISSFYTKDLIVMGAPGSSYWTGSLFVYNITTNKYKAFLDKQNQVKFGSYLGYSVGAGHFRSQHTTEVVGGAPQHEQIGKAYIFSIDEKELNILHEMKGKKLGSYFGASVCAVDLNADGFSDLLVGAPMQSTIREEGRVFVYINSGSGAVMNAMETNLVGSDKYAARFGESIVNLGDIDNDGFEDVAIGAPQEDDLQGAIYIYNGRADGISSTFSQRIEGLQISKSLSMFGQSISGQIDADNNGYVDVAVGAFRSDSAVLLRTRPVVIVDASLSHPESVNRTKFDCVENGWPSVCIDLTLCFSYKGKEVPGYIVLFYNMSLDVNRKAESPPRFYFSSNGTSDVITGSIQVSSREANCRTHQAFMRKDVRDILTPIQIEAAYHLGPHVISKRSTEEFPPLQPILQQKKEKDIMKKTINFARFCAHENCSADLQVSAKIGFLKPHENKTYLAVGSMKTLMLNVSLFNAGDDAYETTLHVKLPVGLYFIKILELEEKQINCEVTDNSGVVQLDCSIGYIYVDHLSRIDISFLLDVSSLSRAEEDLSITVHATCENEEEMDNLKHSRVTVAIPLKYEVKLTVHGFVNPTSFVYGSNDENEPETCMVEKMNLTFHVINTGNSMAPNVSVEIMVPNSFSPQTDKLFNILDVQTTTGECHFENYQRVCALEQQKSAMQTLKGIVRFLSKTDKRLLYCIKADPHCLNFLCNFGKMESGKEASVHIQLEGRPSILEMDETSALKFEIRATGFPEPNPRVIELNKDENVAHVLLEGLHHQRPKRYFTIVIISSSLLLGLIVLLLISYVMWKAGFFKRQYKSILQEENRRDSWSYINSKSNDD
T1 sequence (P26010 20-798): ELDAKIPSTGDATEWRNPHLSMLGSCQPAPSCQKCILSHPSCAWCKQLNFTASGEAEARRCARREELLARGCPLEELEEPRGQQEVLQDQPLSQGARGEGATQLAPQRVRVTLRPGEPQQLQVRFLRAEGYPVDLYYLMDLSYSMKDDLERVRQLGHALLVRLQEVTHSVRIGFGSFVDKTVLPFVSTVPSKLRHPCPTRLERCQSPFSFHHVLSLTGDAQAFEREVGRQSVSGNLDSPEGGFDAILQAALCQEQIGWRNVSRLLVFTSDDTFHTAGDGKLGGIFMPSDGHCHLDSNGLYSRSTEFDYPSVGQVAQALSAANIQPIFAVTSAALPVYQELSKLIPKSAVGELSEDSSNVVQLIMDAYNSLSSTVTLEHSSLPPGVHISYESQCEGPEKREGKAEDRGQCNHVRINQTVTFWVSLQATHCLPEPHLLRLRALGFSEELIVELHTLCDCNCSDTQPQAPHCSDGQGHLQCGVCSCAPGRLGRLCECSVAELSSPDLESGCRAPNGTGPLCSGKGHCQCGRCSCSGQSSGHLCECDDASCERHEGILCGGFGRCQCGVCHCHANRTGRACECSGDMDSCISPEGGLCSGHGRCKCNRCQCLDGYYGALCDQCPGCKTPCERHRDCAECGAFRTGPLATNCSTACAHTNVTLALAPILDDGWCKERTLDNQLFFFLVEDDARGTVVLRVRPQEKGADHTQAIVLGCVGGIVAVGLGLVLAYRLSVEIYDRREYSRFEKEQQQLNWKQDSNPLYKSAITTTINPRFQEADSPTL
Outline: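 Adhesion was read by calcein fluorescence. RPMI8866 cells were labelled at 10 million cells/ml with […] calcein (37° C., 30 min) and washed twice in PBS before reading. Dose-response values were corrected by subtracting cell-free control well fluorescence.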

[2] = target: T2, integrin α4β7 on α4β7+ memory T helper cells (Homo sapiens, UniProt P13612+P26010); assay: MAdCAM-1 competition / receptor occupancy assay in human whole blood, α4β7-positive Th memory cells; assay type: cell-based; conditions: human whole blood, inhibition of MAdCAM-1 binding to α4β7-positive Th memory cells, FACS; read-out: MADCAM FACS α4β7 Th mem
T2 construct: endogenous in cells
T2 sequence (P13612 34-1032): T1 sequence (P13612 34-1032)
T2 sequence (P26010 20-798): T1 sequence (P26010 20-798)
Procedure: Analyte Competition Assay in CD4+ Integrin α4+β7-Lo Memory T Cells
Receptor occupancy in primary cells was determined by measuring the amount of biotinylated human recombinant MAdCAM-1-FC or human recombinant VCAM-1-Fc bound to selected cell populations using flow cytometry. Human recombinant MAdCAM-1-FC or human recombinant VCAM-1-FC (R&D systems) were biotinylated using commercially available reagents and protocol (Pierce).
Whole blood was collected from human donors in sodium heparin tubes. […] Cells were washed twice with 1 mL of 1X DPBS calcium magnesium free (CMF) (ThermoFisher Scientific) and resuspended in 100 microL of DPBS CMF.
Biotinylated human recombinant MAdCAM-1-Fc or VCAM-1-Fc were added at saturating concentration and incubated at room temperature for 1 hour. […] Cells were washed with 1 mL stain buffer-FBS (BD Biosciences) and resuspended in 100 μl stain Buffer-FBS (BD Biosciences) containing 4 mM MnCl2. […] Cells were then washed with 1 mL stain buffer-FBS and resuspended in […] stain buffer-FBS. The cells were incubated in the dark for 30 minutes at room temperature with 1 ul Streptavidin APC (Biolegend 0.2 mg/ml) and a panel of antibodies for the detection of memory T helper a4b7-positive cells subset. And amount of 5.0 ul each of the following antibodies were used; CD45 FITC (BioLegend 200 ug/ml), CD29 APC Cy7 (BioLegend 100 ug/ml), Integrin beta7 PE, (BioLegend concentration 50 μg/mL), CD49d V421 (BioLegend 50 μg/mL), CD3 V510 (BioLegend 30 μg/mL), CD4 PECy7 (BioLegend 100 μg/mL), CD45RO PerCP, BioLegend 200 μg/mL). The cells were then washed with stain-buffer-FBS and resuspended in 150 microL stain buffer-FBS for acquisition on the flow cytometer (BD FACSCanto™ flow cytometer and BDFACSDiva™ software). FACS data was acquire by electronic gating on the basis of forward versus side scatter, The cytometer was set to collect 20,000 events in each tube. Cell population were determined using the following markers, CD45+, CD3+, CD4+, CD45RO+, CD49d+, integrin b7, biotinylated ligands.
Compound receptor occupancy was defined as the decrease in the number of integrin β7+ or integrin β7-lo cells binding biotinylated rhMAdCAM-1 or rhVCAM-1, respectively.
Receptor occupancy was calculated with the following equation: 100−((% ligand-positive cells with compound/% ligand-positive cells DMSO)*100) In Vivo T Lymphocyte Trafficking Analysis in Mouse Model of Colitis

[3] = target: T3, recombinant integrin α4β1 (Homo sapiens, UniProt P05556+P13612); assay: Integrin α4β1—VCAM-1 competition ELISA; assay type: binding; conditions: read-out: ELISA α4β1 Assay IC50
T3 construct: purchased R&D Systems 5397-A3-050
T3 sequence (P05556 21-728 limits assumed, one chain of several): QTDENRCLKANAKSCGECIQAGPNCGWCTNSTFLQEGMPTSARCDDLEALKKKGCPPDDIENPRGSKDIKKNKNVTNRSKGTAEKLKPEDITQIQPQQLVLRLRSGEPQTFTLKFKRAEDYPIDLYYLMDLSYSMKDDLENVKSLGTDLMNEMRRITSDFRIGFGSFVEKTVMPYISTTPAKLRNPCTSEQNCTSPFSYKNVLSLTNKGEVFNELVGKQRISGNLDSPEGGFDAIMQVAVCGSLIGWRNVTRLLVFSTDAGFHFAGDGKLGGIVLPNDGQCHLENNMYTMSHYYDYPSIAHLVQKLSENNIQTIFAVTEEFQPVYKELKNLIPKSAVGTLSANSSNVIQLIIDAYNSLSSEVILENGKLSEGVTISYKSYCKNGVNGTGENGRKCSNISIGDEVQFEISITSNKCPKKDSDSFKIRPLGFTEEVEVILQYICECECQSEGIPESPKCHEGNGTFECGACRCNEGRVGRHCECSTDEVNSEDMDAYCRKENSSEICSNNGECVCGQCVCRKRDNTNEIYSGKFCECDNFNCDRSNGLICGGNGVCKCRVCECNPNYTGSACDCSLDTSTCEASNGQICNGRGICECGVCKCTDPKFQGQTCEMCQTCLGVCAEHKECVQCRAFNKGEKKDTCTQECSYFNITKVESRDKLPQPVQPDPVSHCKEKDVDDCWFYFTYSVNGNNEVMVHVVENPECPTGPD
Outline: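 Detection of bound ligand used HRP-conjugated anti-human IgG Fc, 1 h with agitation at room temperature. This followed a 2 h room-temperature, 300 rpm equilibration of compound in the coated wells. Washes were done in 50 mM Tris, 100 mM NaCl, 1 mM MnCl2, 0.05% Tween.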

pIC50 [1] | pIC50 [2] | Structure (SMILES) | pIC50 [3]
7.38 | 7.17 | CC(C)C[C@@H]1NC(=O)c2ccc(-c3ccc(N4CCN(C(=O)Cc5cccc(CC(=O)N6CCN(c7ccc(-c8ccc9cc8CNC(=O)[C@@H]8CCCN8[C@H](C(=O)NC(C)(C)C)[C@H](C)NC(=O)[C@H]([C@@H](C)O)NC(=O)[C@H](CC(=O)O)NC(=O)[C@H](CC(C)C)NC9=O)cc7)CC6)c5)CC4)cc3)c(c2)CNC(=O)[C@@H]2CCCN2[C@H](C(=O)NC(C)(C)C)[C@H](C)NC(=O)[C@H]([C@@H](C)O)NC(=O)[C@H](CC(=O)O)NC1=O [Compound 462] | –
7.35 | 6.60 | CC(C)C[C@@H]1NC(=O)c2ccc(-c3ccc(N4CCN(C(=O)CCOCCOCCOCCOCCOCCOCCOCCOCCOCCOCCOCCC(=O)N5CCN(c6ccc(-c7ccc8cc7CNC(=O)[C@@H]7CCCN7[C@H](C(=O)NC(C)(C)C)[C@H](C)NC(=O)[C@H]([C@@H](C)O)NC(=O)[C@H](CC(=O)O)NC(=O)[C@H](CC(C)C)NC8=O)cc6)CC5)CC4)cc3)c(c2)CNC(=O)[C@@H]2CCCN2[C@H](C(=O)NC(C)(C)C)[C@H](C)NC(=O)[C@H]([C@@H](C)O)NC(=O)[C@H](CC(=O)O)NC1=O [Compound 503] | –

Structure (SMILES) | pIC50 [1] | pIC50 [2] | pIC50 [3]
CC(C)C[C@@H]1NC(=O)[C@H]2Cc3ccccc3CN2C(=O)[C@H](Cc2cccc(CNC(=O)CCCCCC(=O)NCc3cccc(C[C@@H]4NC(=O)[C@@H]5CCCN5[C@H](C(=O)NC(C)(C)C)[C@H](C)NC(=O)[C@H]([C@@H](C)O)NC(=O)[C@H](CC(=O)O)NC(=O)[C@H](CC(C)C)NC(=O)[C@H]5Cc6ccccc6CN5C4=O)c3)c2)NC(=O)[C@@H]2CCCN2[C@H](C(=O)NC(C)(C)C)[C@H](C)NC(=O)[C@H]([C@@H](C)O)NC(=O)[C@H](CC(=O)O)NC1=O [Compound 527] | 7.37 | 6.90 | 8.96
